Measured values from the supplement of paper PMC11061612.

Tests used:
AZD1390 = compound: CC(C)n1c(=O)n(C)c2cnc3cc(F)c(-c4ccc(OCCCN5CCCCC5)nc4)cc3c21 [AZD1390]; settings: max 0.3 µM
How it was run: (§1)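 After 24 hours at 37°C and 5% CO2 in 1536-well plates holding 7.5 μl of DMEM/F12 or RPMI with 10% FBS, cancer cell lines were dosed for 72 hours, with final DMSO typically 0.2%. Viability came from CellTiter-Glo 2.0 luminescence, scaled between the means of blank wells and DMSO wells. A non-linear mixed effects model fitted a two-parameter logistic curve to each dose response to give the single-agent IC50.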

Palbociclib = compound: CC(=O)c1c(C)c2cnc(Nc3ccc(N4CCNCC4)cn3)nc2n(C2CCCC2)c1=O [Palbociclib]; settings: max 10 µM
How it was run: as §1

Venetoclax = compound: CC1(C)CCC(CN2CCN(c3ccc(C(=O)NS(=O)(=O)c4ccc(NCC5CCOCC5)c([N+](=O)[O-])c4)c(Oc4cnc5[nH]ccc5c4)c3)CC2)=C(c2ccc(Cl)cc2)C1 [Venetoclax]; settings: max 1 µM
How it was run: as §1

Prexasertib = compound: COc1cccc(OCCCN)c1-c1cc(Nc2cnc(C#N)cn2)n[nH]1 [Prexasertib]; settings: max 1 µM
How it was run: as §1

AZD6738 = compound: C[C@@H]1COCCN1C2=NC(=NC(=C2)C3(CC3)[S@](=N)(=O)C)C4=C5C=CNC5=NC=C4 [AZD6738]; settings: max 10 µM
How it was run: as §1

AZD4320 = compound: CN(CC[C@H](CSC1=CC=CC=C1)NC2=C(C=C(C=C2)S(=O)(=O)NC(=O)C3=CC=C(C=C3)N4CCC(CC4)[C@H](C5=CC=CC=C5C6=CC=C(C=C6)Cl)O)S(=O)(=O)C(F)(F)F)CCO [AZD4320]; settings: max 1 µM
How it was run: as §1

AZD8186 = compound: C[C@@H](Nc1cc(F)cc(F)c1)c1cc(C(=O)N(C)C)cc2c(=O)cc(N3CCOCC3)oc12 [AZD8186]; settings: max 3 µM
How it was run: as §1

AZD0156 = compound: CN(C)CCCOc1ccc(-c2ccc3ncc4c(c3c2)n(C2CCOCC2)c(=O)n4C)cn1 [AZD0156]; settings: max 3 µM
How it was run: as §1

Taselisib = compound: Cc1nc(-c2cn3c(n2)-c2ccc(-c4cnn(C(C)(C)C(N)=O)c4)cc2OCC3)n(C(C)C)n1 [Taselisib]; settings: max 10 µM
How it was run: as §1

Gefitinib = compound: COc1cc2ncnc(Nc3ccc(F)c(Cl)c3)c2cc1OCCCN1CCOCC1 [Gefitinib]; settings: max 10 µM
How it was run: as §1

Selumetinib = compound: Cn1cnc2c(F)c(Nc3ccc(Br)cc3Cl)c(C(=O)NOCCO)cc21 [Selumetinib]; settings: max 10 µM
How it was run: as §1

Lapatinib = compound: CS(=O)(=O)CCNCc1ccc(-c2ccc3ncnc(Nc4ccc(OCc5cccc(F)c5)c(Cl)c4)c3c2)o1 [Lapatinib]; settings: max 10 µM
How it was run: as §1

AZD1775 = compound: C=CCn1c(=O)c2cnc(Nc3ccc(N4CCN(C)CC4)cc3)nc2n1-c1cccc(C(C)(C)O)n1 [AZD1775]; settings: max 3 µM
How it was run: as §1

AZD5991 = compound: Cc1c2c(nn1C)CSCc1cc(n(C)n1)CSc1cc(c3ccccc3c1)OCCCc1c(C(=O)O)n(C)c3c-2c(Cl)ccc13 [AZD5991]; settings: max 1 µM
How it was run: as §1

Dasatinib = compound: CC1=C(C(=CC=C1)Cl)NC(=O)C2=CN=C(S2)NC3=CC(=NC(=N3)C)N4CCN(CC4)CCO [Dasatinib]; settings: max 2 µM
How it was run: as §1

Olaparib = compound: O=C(c1cc(Cc2n[nH]c(=O)c3ccccc23)ccc1F)N1CCN(C(=O)C2CC2)CC1 [Olaparib]; settings: max 10 µM
How it was run: as §1

AZD7648 = compound: Cc1cc2ncnn2cc1Nc1ncc2c(n1)n(C1CCOCC1)c(=O)n2C [AZD7648]; settings: max 10 µM
How it was run: as §1

Alisertib = compound: COc1cc(Nc2ncc3c(n2)-c2ccc(Cl)cc2C(c2c(F)cccc2OC)=NC3)ccc1C(=O)O [Alisertib]; settings: max 10 µM
How it was run: as §1

SN-38 = compound: CCc1c2c(nc3ccc(O)cc13)-c1cc3c(c(=O)n1C2)COC(=O)[C@]3(O)CC [SN-38]; settings: max 0.3 µM
How it was run: as §1

Crizotinib = compound: C[C@@H](Oc1cc(-c2cnn(C3CCNCC3)c2)cnc1N)c1c(Cl)ccc(F)c1Cl [Crizotinib]; settings: max 10 µM
How it was run: as §1

Trametinib = compound: CC(=O)Nc1cccc(-n2c(=O)n(C3CC3)c(=O)c3c(Nc4ccc(I)cc4F)n(C)c(=O)c(C)c32)c1 [Trametinib]; settings: max 1 µM
How it was run: as §1

Savolitinib = compound: C[C@@H](c1ccc2nccn2c1)n1nnc2ncc(-c3cnn(C)c3)nc21 [Savolitinib]; settings: max 1 µM
How it was run: as §1

Doxorubicin = compound: COc1cccc2c1C(=O)c1c(O)c3c(c(O)c1C2=O)C[C@@](O)(C(=O)CO)C[C@@H]3O[C@H]1C[C@H](N)[C@H](O)[C@H](C)O1 [Doxorubicin]; settings: max 1 µM
How it was run: as §1

Capivasertib = compound: C1CN(CCC1(C(=O)N[C@@H](CCO)C2=CC=C(C=C2)Cl)N)C3=NC=NC4=C3C=CN4 [Capivasertib]; settings: max 10 µM
How it was run: as §1

SG3199 = compound: CC1=CN2[C@@H](C1)C=NC3=CC(=C(C=C3C2=O)OC)OCCCCCOC4=C(C=C5C(=C4)N=C[C@@H]6CC(=CN6C5=O)C)OC [SG3199]; settings: max 0.001 µM
How it was run: as §1

AZD2811 = compound: CCN(CCO)CCCOc1ccc2c(Nc3cc(CC(=O)Nc4cccc(F)c4)[nH]n3)ncnc2c1 [AZD2811]; settings: max 1 µM
How it was run: as §1

AZD5153 = compound: COc1nnc2ccc(N3CCC(c4ccc(OCCN5CCN(C)C(=O)[C@H]5C)cc4)CC3)nn12 [AZD5153]; settings: max 1 µM
How it was run: as §1

Row | Cell Line | IC50, cell viability 72 h (AZD1390) | IC50, cell viability 72 h (Palbociclib) | IC50, cell viability 72 h (Venetoclax) | IC50, cell viability 72 h (Prexasertib) | IC50, cell viability 72 h (AZD6738) | IC50, cell viability 72 h (AZD4320) | IC50, cell viability 72 h (AZD8186) | IC50, cell viability 72 h (AZD0156) | IC50, cell viability 72 h (Taselisib) | IC50, cell viability 72 h (Gefitinib) | IC50, cell viability 72 h (Selumetinib) | IC50, cell viability 72 h (Lapatinib) | IC50, cell viability 72 h (AZD1775) | IC50, cell viability 72 h (AZD5991) | IC50, cell viability 72 h (Dasatinib) | IC50, cell viability 72 h (Olaparib) | IC50, cell viability 72 h (AZD7648) | IC50, cell viability 72 h (Alisertib) | IC50, cell viability 72 h (SN-38) | IC50, cell viability 72 h (Crizotinib) | IC50, cell viability 72 h (Trametinib) | IC50, cell viability 72 h (Savolitinib) | IC50, cell viability 72 h (Doxorubicin) | IC50, cell viability 72 h (Capivasertib) | IC50, cell viability 72 h (SG3199) | IC50, cell viability 72 h (AZD2811) | IC50, cell viability 72 h (AZD5153)
1 | COR-L311 (Small Cell Lung Carcinoma) | > 300 nM | > 10000 nM | 208 nM | 107 nM | > 10000 nM | 1.92 nM | > 3000 nM | > 3000 nM | 1610 nM | > 10000 nM | > 10000 nM | > 10000 nM | 910 nM | > 1000 nM | > 2000 nM | > 10000 nM | > 10000 nM | 1510 nM | 3.07 nM | 2970 nM | > 1000 nM | > 1000 nM | 685 nM | 3020 nM | > 1 nM | 75.4 nM | 175 nM
2 | GI-ME-N (Neuroblastoma) | > 300 nM | > 10000 nM | > 1000 nM | 731 nM | > 10000 nM | > 1000 nM | > 3000 nM | > 3000 nM | > 10000 nM | > 10000 nM | > 10000 nM | > 10000 nM | 2220 nM | > 1000 nM | > 2000 nM | > 10000 nM | > 10000 nM | > 10000 nM | > 300 nM | > 10000 nM | > 1000 nM | > 1000 nM | > 1000 nM | > 10000 nM | > 1 nM | > 1000 nM | > 1000 nM
3 | Hs-445 (Non-Cancerous) | > 300 nM | > 10000 nM | > 1000 nM | 3.9 nM | 2090 nM | 224 nM | > 3000 nM | > 3000 nM | 9180 nM | > 10000 nM | > 10000 nM | > 10000 nM | 134 nM | 213 nM | > 2000 nM | > 10000 nM | > 10000 nM | > 10000 nM | 3.33 nM | > 10000 nM | > 1000 nM | > 1000 nM | 146 nM | 3880 nM | > 1 nM | > 1000 nM | > 1000 nM
4 | JSC-1 (B-Cell Non-Hodgkin's Lymphoma) | > 300 nM | 5840 nM | > 1000 nM | 5.24 nM | 1860 nM | > 1000 nM | > 3000 nM | > 3000 nM | > 10000 nM | > 10000 nM | 4680 nM | > 10000 nM | 328 nM | 33.4 nM | > 2000 nM | > 10000 nM | > 10000 nM | 7110 nM | 2.11 nM | 6190 nM | 260 nM | > 1000 nM | 120 nM | 7450 nM | > 1 nM | > 1000 nM | 66.7 nM
5 | MDST8 (Colorectal Carcinoma) | > 300 nM | > 10000 nM | > 1000 nM | 25 nM | 7450 nM | 890 nM | > 3000 nM | > 3000 nM | > 10000 nM | > 10000 nM | 1150 nM | > 10000 nM | 875 nM | > 1000 nM | > 2000 nM | > 10000 nM | > 10000 nM | > 10000 nM | 15.6 nM | > 10000 nM | 19.9 nM | > 1000 nM | 224 nM | > 10000 nM | > 1 nM | > 1000 nM | > 1000 nM
6 | NCI-H1650 (Lung Adenocarcinoma) | > 300 nM | > 10000 nM | > 1000 nM | 472 nM | > 10000 nM | > 1000 nM | > 3000 nM | > 3000 nM | > 10000 nM | > 10000 nM | > 10000 nM | > 10000 nM | > 3000 nM | > 1000 nM | > 2000 nM | > 10000 nM | > 10000 nM | > 10000 nM | > 300 nM | > 10000 nM | > 1000 nM | > 1000 nM | > 1000 nM | > 10000 nM | > 1 nM | > 1000 nM | > 1000 nM
7 | NCI-H1693 (Lung Adenocarcinoma) | > 300 nM | > 10000 nM | > 1000 nM | > 1000 nM | > 10000 nM | > 1000 nM | > 3000 nM | > 3000 nM | > 10000 nM | > 10000 nM | > 10000 nM | > 10000 nM | > 3000 nM | > 1000 nM | > 2000 nM | > 10000 nM | > 10000 nM | > 10000 nM | 87.2 nM | > 10000 nM | > 1000 nM | > 1000 nM | > 1000 nM | > 10000 nM | > 1 nM | > 1000 nM | > 1000 nM
8 | NCI-H2141 (Small Cell Lung Carcinoma) | > 300 nM | > 10000 nM | > 1000 nM | 458 nM | > 10000 nM | 307 nM | > 3000 nM | > 3000 nM | > 10000 nM | > 10000 nM | > 10000 nM | > 10000 nM | 2200 nM | > 1000 nM | > 2000 nM | > 10000 nM | > 10000 nM | > 10000 nM | > 300 nM | > 10000 nM | > 1000 nM | > 1000 nM | > 1000 nM | > 10000 nM | > 1 nM | > 1000 nM | > 1000 nM
